# According to publication PMC5079764 (Bioorganic & medicinal chemistry, 2016):
# Legend:
# D4 receptor = molecular target: T1, D4 receptor (Homo sapiens, UniProt P21917); conditions: Table 1; cited from earlier work
# T1 sequence (P21917 1-419): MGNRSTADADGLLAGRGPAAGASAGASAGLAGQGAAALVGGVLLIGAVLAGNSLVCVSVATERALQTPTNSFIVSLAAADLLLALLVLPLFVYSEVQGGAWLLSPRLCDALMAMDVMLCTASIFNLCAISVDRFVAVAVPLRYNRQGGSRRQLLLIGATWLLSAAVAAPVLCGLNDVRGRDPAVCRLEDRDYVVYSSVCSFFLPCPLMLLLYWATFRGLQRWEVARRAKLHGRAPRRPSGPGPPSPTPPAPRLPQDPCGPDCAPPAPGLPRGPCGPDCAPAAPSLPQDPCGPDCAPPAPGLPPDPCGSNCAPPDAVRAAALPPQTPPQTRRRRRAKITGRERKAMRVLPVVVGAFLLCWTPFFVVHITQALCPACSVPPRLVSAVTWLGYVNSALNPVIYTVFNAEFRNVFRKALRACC
# 5-HT7 receptor = 5-HT7 receptor (Homo sapiens, UniProt P34969); conditions: Table 1; cited from earlier work
# 5-HT2C receptor = molecular target: T2, 5-HT2C receptor (Homo sapiens, UniProt P28335); conditions: Table 1; cited from earlier work
# T2 sequence (P28335 33-458): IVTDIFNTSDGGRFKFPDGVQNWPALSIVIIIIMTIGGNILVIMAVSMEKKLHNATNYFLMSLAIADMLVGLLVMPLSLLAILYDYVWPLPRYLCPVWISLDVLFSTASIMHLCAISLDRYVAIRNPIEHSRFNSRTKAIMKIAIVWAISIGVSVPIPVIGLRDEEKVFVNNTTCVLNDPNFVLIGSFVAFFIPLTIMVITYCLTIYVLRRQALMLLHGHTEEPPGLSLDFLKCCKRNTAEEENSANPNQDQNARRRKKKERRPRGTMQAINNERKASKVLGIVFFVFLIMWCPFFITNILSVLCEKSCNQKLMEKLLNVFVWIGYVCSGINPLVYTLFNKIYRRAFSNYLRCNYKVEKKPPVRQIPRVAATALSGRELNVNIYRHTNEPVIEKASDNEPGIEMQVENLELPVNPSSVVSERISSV
# 5-HT1A receptor = molecular target: T3, 5-HT1A receptor (Homo sapiens, UniProt P08908); conditions: Table 1, cited from earlier work
# T3 sequence (P08908 1-422): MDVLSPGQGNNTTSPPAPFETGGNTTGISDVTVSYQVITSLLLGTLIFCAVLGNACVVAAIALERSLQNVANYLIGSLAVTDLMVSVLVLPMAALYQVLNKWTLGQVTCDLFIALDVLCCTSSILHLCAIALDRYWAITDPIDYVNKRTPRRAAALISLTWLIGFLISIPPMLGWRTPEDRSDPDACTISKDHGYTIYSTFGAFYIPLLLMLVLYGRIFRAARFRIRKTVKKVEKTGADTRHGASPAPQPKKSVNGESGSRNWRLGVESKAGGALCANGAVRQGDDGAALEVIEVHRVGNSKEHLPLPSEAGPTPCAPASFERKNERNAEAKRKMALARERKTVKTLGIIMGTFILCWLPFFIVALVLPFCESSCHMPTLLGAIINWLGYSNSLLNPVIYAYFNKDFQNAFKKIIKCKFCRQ
# H1 receptor = H1 receptor (Homo sapiens, UniProt P35367); conditions: Table 1; cited from earlier work
# 5-HT2B receptor [1] = molecular target: T4, 5-HT2B receptor (Homo sapiens, UniProt P41595); conditions: Table 1; cited from earlier work
# 5-HT2A receptor = 5-HT2A receptor (Homo sapiens, UniProt P28223); conditions: Table 1; cited from earlier work
# D2 receptor [2] = molecular target: T5, D2 receptor (Homo sapiens, UniProt P14416); conditions: Table 1; cited from earlier work
# D2 receptor [3] = molecular target: T5, D2 receptor; assay: NIMH-PDSP receptor binding affinity, D2; conditions: Table 1; MTA = Missed 50% of threshold inhibition
# 5-HT2B receptor [4] = molecular target: T4, 5-HT2B receptor; assay: NIMH-PDSP receptor binding affinity, 5-HT2B; conditions: Table 1; MTA = Missed 50% of threshold inhibition
# T4 sequence (P41595 whole entry): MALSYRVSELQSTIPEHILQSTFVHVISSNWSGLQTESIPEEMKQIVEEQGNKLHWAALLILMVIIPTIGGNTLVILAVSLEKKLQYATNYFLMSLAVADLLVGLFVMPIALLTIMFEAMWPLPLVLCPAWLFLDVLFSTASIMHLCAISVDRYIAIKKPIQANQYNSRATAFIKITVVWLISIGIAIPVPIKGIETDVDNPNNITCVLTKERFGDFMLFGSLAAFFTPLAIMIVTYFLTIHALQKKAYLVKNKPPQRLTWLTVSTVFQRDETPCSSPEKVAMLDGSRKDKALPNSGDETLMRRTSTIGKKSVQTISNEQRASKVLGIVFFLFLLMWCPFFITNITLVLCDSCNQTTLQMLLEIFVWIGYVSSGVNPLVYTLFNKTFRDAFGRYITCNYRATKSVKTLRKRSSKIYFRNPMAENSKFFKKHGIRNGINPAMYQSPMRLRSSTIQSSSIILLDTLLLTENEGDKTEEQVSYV
# T5 sequence (P14416 whole entry): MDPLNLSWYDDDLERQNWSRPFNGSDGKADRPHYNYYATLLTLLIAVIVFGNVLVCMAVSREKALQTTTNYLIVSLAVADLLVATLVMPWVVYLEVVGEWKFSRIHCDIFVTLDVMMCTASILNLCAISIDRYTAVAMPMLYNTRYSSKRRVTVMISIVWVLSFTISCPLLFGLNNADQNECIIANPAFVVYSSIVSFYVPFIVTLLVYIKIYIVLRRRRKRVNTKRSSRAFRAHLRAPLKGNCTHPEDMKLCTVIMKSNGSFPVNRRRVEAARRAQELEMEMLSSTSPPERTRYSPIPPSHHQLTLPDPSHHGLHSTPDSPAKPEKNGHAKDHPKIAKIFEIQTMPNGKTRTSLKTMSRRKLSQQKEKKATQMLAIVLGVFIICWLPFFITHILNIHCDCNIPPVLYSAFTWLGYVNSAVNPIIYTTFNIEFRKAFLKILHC
# Sequence of 5-HT7 receptor (P34969 whole entry): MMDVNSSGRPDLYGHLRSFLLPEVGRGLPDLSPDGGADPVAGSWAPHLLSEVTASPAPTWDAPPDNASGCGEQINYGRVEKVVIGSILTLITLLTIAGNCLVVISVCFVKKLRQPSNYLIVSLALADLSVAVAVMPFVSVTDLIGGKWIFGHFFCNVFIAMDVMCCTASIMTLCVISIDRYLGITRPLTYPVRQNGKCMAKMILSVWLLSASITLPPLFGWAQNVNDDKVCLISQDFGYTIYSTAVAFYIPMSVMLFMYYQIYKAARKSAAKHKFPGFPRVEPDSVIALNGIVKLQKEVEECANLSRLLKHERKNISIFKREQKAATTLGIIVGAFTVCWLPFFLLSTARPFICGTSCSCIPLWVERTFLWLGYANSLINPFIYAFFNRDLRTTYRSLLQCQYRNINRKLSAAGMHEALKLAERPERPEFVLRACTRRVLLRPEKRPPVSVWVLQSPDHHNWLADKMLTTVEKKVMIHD
# Sequence of H1 receptor (P35367 whole entry): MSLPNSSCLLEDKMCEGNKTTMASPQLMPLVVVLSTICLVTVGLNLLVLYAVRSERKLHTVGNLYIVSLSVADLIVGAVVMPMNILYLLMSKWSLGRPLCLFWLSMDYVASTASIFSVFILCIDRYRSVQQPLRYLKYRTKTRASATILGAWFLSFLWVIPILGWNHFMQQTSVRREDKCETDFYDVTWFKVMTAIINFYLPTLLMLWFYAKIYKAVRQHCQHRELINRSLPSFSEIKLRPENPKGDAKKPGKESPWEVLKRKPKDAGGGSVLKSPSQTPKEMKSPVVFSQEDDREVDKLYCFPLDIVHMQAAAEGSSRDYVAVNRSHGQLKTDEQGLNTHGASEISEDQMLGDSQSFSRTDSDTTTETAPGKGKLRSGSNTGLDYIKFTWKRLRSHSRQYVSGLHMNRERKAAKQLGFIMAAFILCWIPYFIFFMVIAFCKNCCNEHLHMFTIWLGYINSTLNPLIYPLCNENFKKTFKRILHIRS
# Sequence of 5-HT2A receptor (P28223 whole entry): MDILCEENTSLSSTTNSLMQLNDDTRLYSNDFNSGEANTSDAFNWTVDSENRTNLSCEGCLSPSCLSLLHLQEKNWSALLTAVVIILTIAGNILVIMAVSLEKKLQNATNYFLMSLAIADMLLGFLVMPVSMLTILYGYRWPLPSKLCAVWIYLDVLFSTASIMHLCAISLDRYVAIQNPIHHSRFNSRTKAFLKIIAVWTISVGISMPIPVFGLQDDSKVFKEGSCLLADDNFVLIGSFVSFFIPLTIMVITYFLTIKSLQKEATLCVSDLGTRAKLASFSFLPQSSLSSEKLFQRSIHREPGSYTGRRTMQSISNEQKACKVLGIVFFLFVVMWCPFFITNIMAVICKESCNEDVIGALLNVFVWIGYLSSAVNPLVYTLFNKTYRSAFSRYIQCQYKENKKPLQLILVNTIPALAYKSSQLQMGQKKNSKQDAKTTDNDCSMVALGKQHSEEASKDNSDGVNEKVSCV
smiles,measurement,setting,value
"c1ccc2c(c1)CCN(CCCCc1nc3ccccc3s1)C2 [Compound 1a, 2-(4-(3,4-Dihydroisoquinolin-2(1H)-yl)butyl)benzo[d]thiazole]",pKi±SEM D4,D4 receptor,7.17±0.05
same,pKi±SEM 5-HT7,5-HT7 receptor,7.66±0.06
same,pKi±SEM 5-HT2C,5-HT2C receptor,6.04±0.04
same,pKi±SEM 5-HT1A,5-HT1A receptor,8±0.03
same,Ki,"5-HT1A receptor; read-out: Ki (nM) 5-HT1A, MTA = Missed 50% of threshold inhibition",10 nM
same,pKi±SEM H1,H1 receptor,6.23±0.08
same,pKi±SEM 5-HT2B,5-HT2B receptor [1],7.74±0.05
same,pKi±SEM 5-HT2A,5-HT2A receptor,5.77±0.06
same,pKi±SEM D2,D2 receptor [2],6.78±0.09
"Br.c1ccc2c(c1)CCN(CCCc1nc3ccccc3s1)C2 [Compound 1b, 2-(3-(3,4-Dihydroisoquinolin-2(1H)-yl)propyl)benzo[d]thiazole hydrobromide]",Ki (nM) D2,D2 receptor [3],MTA
"Cl.Cl.c1ccc2c(c1)CCN(CCCc1nc3ccccc3[nH]1)C2 [Compound 1d, 2-(3-(1H-benzo[d]imidazol-2-yl)propyl)-1,2,3,4-tetrahydroisoquinoline]",Ki (nM) 5-HT2B,5-HT2B receptor [4],MTA
